The text below walks through data of article PMC7115580 (European Journal of Medicinal Chemistry, 2017).

Structures are written as SMILES.

This assay addresses S31N mutant M2 channel (Influenza A virus, UniProt P0DOF5, S31N). It counts as biochemical.
In the case of `CC1(C)N=C(N)N=C(N)N1c1ccc(Cl)c(Cl)c1` [Compound 16], the “Inhibition of S31N mutant M2 channel” value is given as “neither of the three compounds significantly inhibited”.
As to `CC1(C)N=C(N)N=C(N)N1c1cccc(C(F)(F)F)c1` [Compound 14], the “Inhibition of S31N mutant M2 channel” value is listed as “neither of the three compounds significantly inhibited”.
Regarding `CC1(C)N=C(N)N=C(N)N1c1ccc(Cl)cc1` [Compound 1, cycloguanil, reference compound], the “Inhibition of S31N mutant M2 channel” value is recorded as “neither of the three compounds significantly inhibited”.
